Results on one compound are retold here after US20260240851A1, “Treatment of Parkinson's Disease in a Patient Using a Glucocerebrosidase Activator” (BIAL - R&D Investments, S.A., priority 2023, published 2026).

The nature of data set [1]: LTI-291-004 imaging study in GBA-PD: plasma concentrations. It counts as in vivo, human. The conditions noted are these: Day 7, Day 14, Day 28, GBA-PD. How it is done: (§1) This study was a Phase 1B, randomized, double-blind, placebo-controlled, multiple oral dose study of Compound A in 14 subjects (aged 51 to 81 years) with GBA-PD. The objectives of this study were to investigate the safety, tolerability, and PK of multiple once-daily oral administration of Compound A and to explore the accompanying pharmacodynamic changes. Subjects received once-daily oral doses of 10 mg (n=6) or 60 mg (2×30 mg capsules) (n=6) Compound A or placebo (n=2) for 28 consecutive days. PK samples were measured once on Day 7 and Day 14 and 4 times after the last dose on Day 28. Plasma concentrations were summarized at each time point, and no PK parameters were estimated. The PD evaluations included fMRI measures; FDG-PET to determine the metabolic rate of glucose in specific regions of the brain; and functional outcome measures (MDS-UPDRS Part III and the MMSE). GluCer, GluSph, and LacCer and other sphingolipids were measured in PBMCs and plasma as biomarkers of pharmacological effect.

The subject of data set [2] is GluCer, GluSph and LacCer in PBMCs and plasma. Description: LTI-291-004: glycolipid biomarkers. Type of data set: in vivo, human. As to the method:
as §1

Data set [3] has as its system GluCer in plasma and PBMCs. Description: LTI-291-001: GluCer biomarker. Type of data set: in vivo, human. As to conditions: single doses, vs placebo. As to the method:
The pharmacodynamic evaluations consisted of a battery of CNS (NeuroCart®) assessments, including Saccadic Eye Movements, Smooth Pursuit Eye Movements, Adaptive Tracking, Body Sway, Visual Verbal Learning Test, and EEG. GluCer was measured in plasma and PBMCs as a biomarker of pharmacological effect.

In data set [4] the test system is GluCer, GluSph and LacCer in plasma, PBMCs and CSF. Kind of data set: LTI-291-003: glycolipid biomarkers. Type of data set: in vivo, human. The conditions noted are these: for GluCer and LacCer in PBMCs: GBA-PD. How it is done: GluCer, GluSph, and LacCer were measured in plasma, PBMCs, and CSF as biomarkers of pharmacological effects. The pharmacodynamic evaluations also consisted of a battery of NeuroCart assessments (Saccadic Eye Movements, Smooth Pursuit Eye Movements, Adaptive Tracking, Body Sway, and Visual Verbal Learning Test); functional outcome measures (MDS-UPDRS Part III, and the MMSE); and pharmaco-EEG.

Data set [5] can be described thus: BIA 28-6156-105: safety and tolerability.
Data set [6] can be described thus: LTI-291-004: safety and tolerability. Type of data set: in vivo, human. As to the method: as §1
Data set [7] in a line: Phase 2 placebo-controlled study of Compound A in GBA-PD (Example 3). It counts as in vivo, human. The text has this:
This study is a Phase 2, randomized, double-blind, placebo-controlled, multiple oral dose study of Compound A in subjects (aged 35 to 80 years, inclusive) with GBA-PD. The subjects have a clinical diagnosis of PD for at least 1 year and for no longer than 7 years before initiation of screening (for Part A), as confirmed by a neurologist using the MDS Criteria for Parkinson's Disease, have a modified Hoehn and Yahr score 2.5, have a score of ≥22 on the Montreal Cognitive Assessment (MoCA), and are receiving symptomatic treatment for PD. […] The objectives of this study are to investigate the efficacy, safety, tolerability, pharmacodynamics and PK of once-daily oral administration of Compound A.
Genetic screening of the subjects is performed using blood collected (preferably whole blood samples). Subjects are screened by sequencing of the full GBA1 gene, with specifications of any PD risk-associated variants that are identified. Subjects are also screened for the presence or absence of PD risk-associated variants in the LRRK2 (Leucine-rich repeat kinase 2) gene. Subjects who have an LRRK2 pathogenic variant are not eligible for Part B (Double-Blind Treatment) of the study.
Subjects that have a pathogenic variant in the glucocerebrosidase 1 (GBA1) gene (GBA-PD) (for example, see Appendix 1) and have been on a stable dose of PD medication for at least 30 days (at least 60 days for rasagiline) before commencing treatment are included in the next stage of the trial. In addition, subjects with the following are excluded from further treatment: • The subject has Gaucher's disease (GD), as defined by clinical signs and symptoms (i.e., hepatosplenomegaly, cytopenia, skeletal disease), and/or a medical history of marked deficiency of GCase plasmatic activity (preferably GCase whole blood activity) compatible with GD. • The subject is homozygous for a GBA1 pathogenic variant that is known to be associated with GD or compound heterozygous for 2 alleles that are known to be associated with GD. • The subject carries a known PD-associated LRRK2 pathogenic variant (for example, see Appendix 2). • The subject has atypical or secondary parkinsonism by medical history or in the opinion of the investigator. Atypical parkinsonism includes, but is not limited to, diagnoses of progressive supranuclear palsy, cortico-basal syndrome, and multiple system atrophy. Secondary parkinsonism includes drug-induced, toxin-induced, postinfectious, posttraumatic, or vascular parkinsonism. • The subject is using a strong CYP3A4 modulator at the time of screening for Part B. • The subject is using a breast cancer resistance protein (BCRP) substrate (e.g. pravastatin, rosuvastatin, glyburide) at the time of screening for Part B. • (Optionally) The subject has used any of the following medications within 60 days before Baseline: typical or atypical antipsychotics (including, but not limited to, clozapine, pimavanserin, olanzapine, quetiapine, risperidone, and aripiprazole); metoclopramide; prochlorperazine; methyldopa; tetrabenazine; deutetrabenazine; valbenazine; reserpine; or a prior history or continuation or initiation during the study of ambroxol at doses >120 mg/day.
Subjects are randomly assigned to three groups who receive i) Compound A 10 mg, once daily, oral administration, ii) Compound A 60 mg, once daily, oral administration, or iii) Placebo, once daily, oral administration. Subjects also receive their usual PD medications throughout the study. Randomization is stratified by major/severe (e.g., heterozygous for N370S, D409H, H255Q, D140H, G202R, L324P, I260T, L444P, A190T, R120W; homozygous for T369M or E326K) or minor/mild (e.g., heterozygous for T369M or E326K) PD risk-associated variant. Alternatively, randomization is stratified by severity as a mild or severe GBA1 variant as described in Parlar, 2023 (also see Appendix 1). […]

As to `CCCCCO[C@H]1CC[C@H](NC(=O)c2cnn3c(C)cc(C)nc23)CC1` [Compound A, 5,7-dimethyl-N-((1S*,4S)-4-(pentyloxy)cyclohexyl)pyrazolo[1,5-a]pyrimidine-3-carboxamide], the “Mean plasma concentrations, 60 mg vs 10 mg” value in data set [1] is listed as “higher after the 60 mg dose than after the 10 mg dose”. Further, the PBMC glycolipid levels result in data set [2] (10 or 60 mg daily for 28 days, GBA-PD) is “Significant changes”. For the same compound, in data set [2] (upon Compound A treatment), the “Plasma LacCer” value is listed as “tended to decrease” and the “plasma GluCer or GluSph” value is “no effect was observed”. Also, in data set [3], the “GluCer variables in PBMCs” value is “Differences between treatment with Compound A and placebo were observed”; the “GluCer variables in plasma” value was “No significant overall treatment effects”. Besides, the “GluCer and LacCer in PBMCs” value in data set [4] (7 and 14 days of treatment) is “statistically significant increase”. In data set [4] (10, 30, 60 mg/day), the “dose-response or exposure-response of PBMC glycolipid effects” value is reported as “no obvious dose-response or exposure response relationship”. Moreover, the “plasma or CSF levels of glycolipids” value in data set [4] (28 days) is given as “no obvious changes”. Also, the “GluCer and LacCer in PBMCs” value in data set [4] (28 days of treatment) was “smaller increase”. For the same compound, the “PBMC glycolipid effects by severity of GBA1 mutation” value in data set [4] (Gaucher or major vs polymorphism GBA1 mutations) is “generally greater”. Moreover, the “Intracellular GluSph in PBMCs” value in data set [4] (vs placebo) is “did not show a clear response”. Moreover, the “laboratory values considered related to Compound A” value in data set [5] (after 150 mg Compound A) was “increased ALT and increased GGT in 1 subject”. Besides, the “deaths or other SAEs” value in data set [5] (in vivo) is reported as “No deaths or other SAEs”. Also, in data set [5] (reported in 2 subjects), the “TEAEs considered related to Compound A 150 mg” value is given as 4 of 90 TEAEs. Besides, in data set [6] (10 or 60 mg daily for 28 days), the “deaths, SAEs, severe AEs” value is given as “No deaths, other SAEs, or severe AEs”. In data set [6] (in vivo), the “relatedness of AEs to study treatment” value is reported as “None of the AEs were considered related to the study treatment” and the “vital signs, laboratory safety assessments, physical examinations, ECG parameters” value is “no clinically significant safety observations”. Also, in data set [7] (all measured time points), the “Mean plasma concentrations, 60 mg vs 10 mg” value is reported as “higher after the 60 mg dose than after the 10 mg dose”. In addition, the “time to worsening (MDS-UPDRS based and other measures)” value in data set [7] (some subjects, Compound A 10 or 60 mg daily up to 78 weeks vs placebo) is on record as “increased time to worsening”. Further, in data set [7] (vs placebo), the “Mean change in lysosomal activity” value is “higher”, the “Mean change in plasma concentrations of neurofilament light chain” value was “lower”, the “Mean change of cerebral blood flow by arterial spin labeling with MRI” value was “higher” and the “mean change in the level of GluSph” value is “higher”.
